In PMC9402538, “Rational design of a sensitivity-enhanced tracer for discovering efficient APC–Asef inhibitors” (Nature Communications, 2022):
Where “and” joins values, the source holds several entries; their conditions need not be identical. Identical values can stand only once. Like-named read-outs stand apart in the source and are kept apart here. Where a SMILES comes first, the peptide text is derived from it. The star is where a group is joined. Pyrrole(1-Me-2-CO) = Cn1cccc1C(=O)*; Pyrrole2CO = O=C(c1ccc[nH]1)*; Picolinoyl = O=C(c1ccccn1)*; Bz = O=C(c1ccccc1)*

Key:
APC (303–739) = target: T1, APC (303–739) (Homo sapiens, UniProt P25054); assay: FP competitive assay using tracer 7; assay type: binding; details: for FP(mp): Tracer 7, replicate wells
T1 sequence (P25054 303-739): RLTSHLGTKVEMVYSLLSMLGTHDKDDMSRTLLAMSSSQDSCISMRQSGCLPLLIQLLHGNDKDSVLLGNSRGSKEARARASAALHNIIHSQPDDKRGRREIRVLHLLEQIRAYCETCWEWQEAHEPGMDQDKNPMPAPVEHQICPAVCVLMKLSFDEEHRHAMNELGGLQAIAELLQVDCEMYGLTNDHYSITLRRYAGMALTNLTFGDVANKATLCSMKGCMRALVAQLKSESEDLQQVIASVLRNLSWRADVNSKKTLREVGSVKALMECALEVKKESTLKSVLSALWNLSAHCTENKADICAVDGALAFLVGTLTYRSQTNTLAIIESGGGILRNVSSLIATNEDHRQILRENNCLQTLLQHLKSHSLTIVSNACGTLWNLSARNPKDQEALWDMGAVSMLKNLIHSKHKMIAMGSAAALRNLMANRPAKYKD
Method: (§1) FITC-labeled tracer peptides were obtained from Changzhou Kanglong Biotech Ltd. (Changzhou, Jiangsu, China). […]. The FP signal changes upon tracer binding were measured after 1.5 h of incubation using a Synergy neo microplate reader (BioTek Instruments, Inc.) and plotted against the protein concentration. The corresponding EC50 values were generated by fitting the curves with a nonlinear regression model. […]. To make a working solution, APC (303–739) was diluted in FP buffer (50 mM HEPES, pH 7.5, 300 mM NaCl, 1 mM EDTA, 1 mM DTT). The diluted APC protein (91 μL) was combined with a serial dilution of peptides (4 μL) and incubated at room temperature for 1 h, followed by the addition of 5 μL of 400 nM tracer 7. The FP signals were measured after 1.5 h of incubation at room temperature using a Synergy neo microplate reader. Three controls were included on each plate, i.e., blank (without protein and tracer), 100% inhibition (free tracer only), and 0% inhibition (protein/tracer complex only) controls. All experiments were performed in triplicate. The IC50 values of peptides were calculated by nonlinear regression analysis using GraphPad Prism 7.0 software.

APC = target: T2, APC (Homo sapiens, UniProt P25054); assay: FP competitive assay using tracer 1; assay type: binding; details: for FP(mp): Tracer 1, triplicate raw readings
T2 sequence (P25054 303-739): T1 sequence (P25054 303-739)
Method: In our previous study, we established an FP assay for screening APC–Asef inhibitors using FITC-labeled tracer 1 (Ac–^176[…][FITC]^195–NH2)[16]. […]. However, their Kd values measured by isothermal titration calorimetry (ITC) actually vary up to more than 20 times[16],[17]. […].
as §1, with “The diluted APC protein (91 μL) was combined with a serial dilution of peptides (4 μL) and incubated at room temperature for 1 h, followed by the addition of 5 μL of 400 nM tracer 7.” left out

[1] = IC50, Tracer 7, Supplementary Table 4
[2] = Repeat 1, Table 3 source data, read-out: IC50(μM) Repeat 1
[3] = Repeat 2, Table 3 source data, read-out: IC50(μM) Repeat 2
[4] = Repeat 3, Table 3 source data, read-out: IC50(μM) Repeat 3
[5] = mean of 3 repeats, Table 3 source data, read-out: IC50(μM) mean
[6] = Supplementary Table 4, read-out: IC50, Tracer 1

Row | SMILES | IC50 (APC (303–739); [1]) | IC50 (APC) | IC50 (APC (303–739); [2]) | IC50 (APC (303–739); [3]) | IC50 (APC (303–739); [4]) | FP(mp) (APC (303–739); Conc. 0.0061 μM) | FP(mp) (APC (303–739); Conc. 0.0122 μM) | FP(mp) (APC (303–739); Conc. 0.0244 μM) | FP(mp) (APC (303–739); Conc. 0.05 μM) | FP(mp) (APC (303–739); Conc. 0.10 μM) | FP(mp) (APC (303–739); Conc. 0.20 μM) | FP(mp) (APC (303–739); Conc. 0.39 μM) | FP(mp) (APC (303–739); Conc. 0.78 μM) | FP(mp) (APC (303–739); Conc. 1.56 μM) | FP(mp) (APC (303–739); Conc. 3.13 μM) | FP(mp) (APC (303–739); Conc. 6.25 μM) | FP(mp) (APC (303–739); Conc. 12.50 μM) | FP(mp) (APC (303–739); Conc. 25.00 μM) | FP(mp) (APC (303–739); Conc. 50.00 μM) | IC50 (APC (303–739); [5]) | also measured
1 | CC(C)C[C@H](NC(=O)[C@H](CO)NC(=O)[C@H](CCC(=O)O)NC(=O)CNC(=O)[C@H](C)NC(=O)c1ccccc1)C(=O)N[C@@H](Cc1c[nH]c2ccccc12)C(=O)N[C@@H](CCC(=O)O)C(N)=O [MAI-452] (Bz-AGESLWE-NH2) | 0.17 ± 0.01 µM | 0.44 ± 0.15 µM | – | – | – | – | – | – | – | – | – | – | – | – | – | – | – | – | – | – | –
2 | C[C@H](NC(=O)c1ccccc1)C(=O)NCC(=O)N[C@@H](CCC(=O)O)C(=O)N[C@@H](CO)C(=O)N[C@@H](Cc1ccc(O)cc1)C(=O)N[C@@H](Cc1ccc(O)cc1)C(=O)N[C@@H](CCC(=O)O)C(N)=O [MAI-458] (Bz-AGESYYE-NH2) | 0.9 ± 0.03 µM | 0.59 ± 0.14 µM | – | – | – | – | – | – | – | – | – | – | – | – | – | – | – | – | – | – | –
3 | CC(C)C[C@H](NC(=O)[C@H](CO)NC(=O)[C@H](CCC(=O)O)NC(=O)CNC(=O)[C@H](C)NC(=O)c1cccn1C)C(=O)N[C@@H](Cc1ccc(O)cc1)C(=O)N[C@@H](CCC(=O)O)C(N)=O [MAI-510] ({Pyrrole(1-Me-2-CO)}-AGESLYE-NH2) | – | – | 0.366 µM | 0.34 µM | 0.303 µM | 303 mp | 296 mp and 295 mp and 301 mp | 291 mp and 290 mp and 295 mp | 274 mp and 278 mp and 275 mp | 247 mp and 251 mp and 254 mp | 216 mp and 217 mp and 220 mp | 171 mp and 173 mp and 169 mp | 131 mp and 132 mp (2×) | 98 mp and 97 mp and 95 mp | 71 mp and 73 mp and 75 mp | 62 mp and 60 mp and 65 mp | 52 mp and 53 mp and 55 mp | 50 mp (2×) and 55 mp | 47 mp and 50 mp (2×) | 0.336 µM | IC50 (APC; [6]): 0.49 ± 0.13 µM; FP(mp) (APC; Conc. 0.05 μM): 182 mp and 181 mp and 180 mp; FP(mp) (APC; Conc. 0.10 μM): 170 mp and 178 mp and 179 mp; FP(mp) (APC; Conc. 0.20 μM): 158 mp and 172 mp; FP(mp) (APC; Conc. 0.39 μM): 146 mp and 158 mp and 159 mp; FP(mp) (APC; Conc. 0.78 μM): 82 mp and 112 mp and 116 mp; FP(mp) (APC; Conc. 1.56 μM): 61 mp and 63 mp and 64 mp; FP(mp) (APC; Conc. 3.13 μM): 52 mp and 51 mp and 53 mp; FP(mp) (APC; Conc. 6.25 μM): 51 mp and 50 mp; FP(mp) (APC; Conc. 12.50 μM): 49 mp and 48 mp; FP(mp) (APC; Conc. 25.00 μM): 49 mp and 46 mp and 48 mp; FP(mp) (APC; Conc. 50.00 μM): 46 mp and 47 mp and 50 mp; FP(mp) (APC; Conc. 100.00 μM): 48 mp and 49 mp and 50 mp; FP(mp) (APC; Conc. 200.00 μM): 48 mp and 47 mp; FP(mp) (APC; Conc. 400.00 μM): 50 mp and 52 mp
4 | CC(C)C[C@H](NC(=O)[C@H](CO)NC(=O)[C@H](CCC(=O)O)NC(=O)CNC(=O)[C@H](C)NC(=O)c1ccccn1)C(=O)N[C@@H](Cc1ccc(O)cc1)C(=O)N[C@@H](CCC(=O)O)C(N)=O [MAI-512] (Picolinoyl-AGESLYE-NH2) | – | – | 1.04 µM | 0.958 µM | 0.93 µM | 305 mp and 310 mp and 308 mp | 307 mp and 310 mp (2×) | 298 mp and 303 mp and 300 mp | 293 mp and 300 mp and 297 mp | 290 mp and 286 mp and 291 mp | 266 mp and 274 mp and 271 mp | 242 mp and 240 mp and 236 mp | 199 mp (2×) and 200 mp | 160 mp and 157 mp and 158 mp | 119 mp (2×) and 121 mp | 94 mp and 89 mp and 91 mp | 80 mp and 77 mp and 78 mp | 69 mp and 66 mp and 65 mp | 61 mp and 57 mp and 60 mp | 0.976 µM | IC50 (APC; [6]): 0.75 ± 0.18 µM; FP(mp) (APC; Conc. 0.05 μM): 172 mp and 170 mp; FP(mp) (APC; Conc. 0.10 μM): 168 mp; FP(mp) (APC; Conc. 0.20 μM): 166 mp and 163 mp and 165 mp; FP(mp) (APC; Conc. 0.39 μM): 156 mp and 155 mp and 153 mp; FP(mp) (APC; Conc. 0.78 μM): 126 mp and 125 mp and 122 mp; FP(mp) (APC; Conc. 1.56 μM): 80 mp and 79 mp and 78 mp; FP(mp) (APC; Conc. 3.13 μM): 59 mp and 55 mp; FP(mp) (APC; Conc. 6.25 μM): 52 mp and 50 mp; FP(mp) (APC; Conc. 12.50 μM): 53 mp and 48 mp and 50 mp; FP(mp) (APC; Conc. 25.00 μM): 51 mp and 48 mp and 47 mp; FP(mp) (APC; Conc. 50.00 μM): 51 mp and 48 mp and 47 mp; FP(mp) (APC; Conc. 100.00 μM): 51 mp and 53 mp; FP(mp) (APC; Conc. 200.00 μM): 51 mp and 47 mp and 50 mp; FP(mp) (APC; Conc. 400.00 μM): 53 mp and 50 mp and 47 mp
5 | CC(C)C[C@H](NC(=O)[C@H](CO)NC(=O)[C@H](CCC(=O)O)NC(=O)CNC(=O)[C@H](C)NC(=O)c1ccccc1)C(=O)N[C@@H](Cc1ccc(O)cc1)C(N)=O [MAI-463] (Bz-AGESLY-NH2) | 1.3 ± 0.05 µM | 0.73 ± 0.15 µM | – | – | – | – | – | – | – | – | – | – | – | – | – | – | – | – | – | – | –
6 | CC(C)C[C@H](NC(=O)[C@H](CO)NC(=O)[C@H](CCC(=O)O)NC(=O)CNC(=O)[C@H](C)NC(=O)c1ccc[nH]1)C(=O)N[C@@H](Cc1ccc(O)cc1)C(=O)N[C@@H](CCC(=O)O)C(N)=O [MAI-509] (Pyrrole2CO-AGESLYE-NH2) | – | – | 0.595 µM | 0.526 µM | 0.599 µM | 288 mp and 294 mp and 291 mp | 287 mp and 290 mp and 289 mp | 290 mp (2×) and 292 mp | 281 mp and 276 mp and 278 mp | 261 mp and 262 mp and 266 mp | 233 mp and 232 mp and 238 mp | 196 mp and 201 mp and 193 mp | 163 mp and 164 mp (2×) | 129 mp and 126 mp (2×) | 103 mp and 101 mp (2×) | 81 mp and 84 mp and 83 mp | 71 mp and 69 mp and 67 mp | 65 mp and 63 mp (2×) | 63 mp and 60 mp (2×) | 0.573 µM | IC50 (APC; [6]): 0.64 ± 0.17 µM; FP(mp) (APC; Conc. 0.05 μM): 182 mp and 179 mp; FP(mp) (APC; Conc. 0.10 μM): 180 mp and 177 mp; FP(mp) (APC; Conc. 0.20 μM): 175 mp and 169 mp and 173 mp; FP(mp) (APC; Conc. 0.39 μM): 157 mp and 159 mp and 160 mp; FP(mp) (APC; Conc. 0.78 μM): 120 mp and 128 mp and 126 mp; FP(mp) (APC; Conc. 1.56 μM): 72 mp and 73 mp; FP(mp) (APC; Conc. 3.13 μM): 56 mp and 54 mp; FP(mp) (APC; Conc. 6.25 μM): 52 mp and 55 mp and 51 mp; FP(mp) (APC; Conc. 12.50 μM): 50 mp and 51 mp and 47 mp; FP(mp) (APC; Conc. 25.00 μM): 50 mp and 48 mp; FP(mp) (APC; Conc. 50.00 μM): 48 mp and 50 mp and 46 mp; FP(mp) (APC; Conc. 100.00 μM): 50 mp and 51 mp and 47 mp; FP(mp) (APC; Conc. 200.00 μM): 48 mp and 50 mp; FP(mp) (APC; Conc. 400.00 μM): 57 mp and 53 mp
